Where two headings read alike, the source gives them in different places.
How the values were obtained:
[1] = target: T1, BChE isolated from human plasma (Homo sapiens, UniProt P06276); assay: Reversible inhibition of BChE, Ellman method; type: biochemical; details: for IC50: 0.1 M phosphate buffer pH 7.4, 25 °C, substrate ATCh, at least three experiments
T1 construct: BChE isolated from human plasma; from tissue; host or cells: human plasma
Procedure: Inhibition potency of novel compounds was evaluated for recombinant human AChE (prepared as described earlier[25] and kindly donated by Prof Palmer Taylor, Skaggs School of Pharmacy and Pharmaceutical Sciences, University of California at San Diego, La Jolla, USA) and BChE isolated from human plasma (kindly donated by late Dr Douglas Cerasoli and Dr David Lenz, […], Edgewood, MD). The inhibition mixture contained a 0.1 M phosphate buffer, pH 7.4, enzyme, tested compound, and reagent, 5,5'-dithiobis(2-nitrobenzoic acid) (DTNB, 0.3 mM; Sigma Chemical Co., St. Louis, MO, USA). Enzyme activity was measured upon addition of substrate, acetylthiocholine (ATCh, 0.2 or 0.1 mM; Sigma Chemical Co., St. Louis, MO, USA) by the Ellman method[26] at 25 °C and 412 nm, on a Tecan Infinite M200PRO plate reader (Tecan Austria, GmbH, Salzburg, Austria). Due to the low solubility, a stock solution of the tested compounds was prepared in DMSO or methanol (Kemika, Zagreb, Croatia), and a corresponding solvent was in controls as well. The IC50 values were determined from at least three experiments by a nonlinear fit of the compound concentration logarithm values vs. % of enzyme activity using Prism6 software (GraphPad Prism 6 Software, San Diego, USA).

recombinant human AChE = target: T2, recombinant human AChE (Homo sapiens, UniProt P22303); assay: Reversible inhibition of AChE, Ellman method; type: biochemical; details: 0.1 M phosphate buffer pH 7.4, 25 °C, substrate ATCh; maximal tested concentration 100 µM for the trans derivatives (DMSO inhibits AChE); read-out: IC50 AChE (IC50 ± SE)
T2 construct: made in house
T2 sequence (P22303 32-614): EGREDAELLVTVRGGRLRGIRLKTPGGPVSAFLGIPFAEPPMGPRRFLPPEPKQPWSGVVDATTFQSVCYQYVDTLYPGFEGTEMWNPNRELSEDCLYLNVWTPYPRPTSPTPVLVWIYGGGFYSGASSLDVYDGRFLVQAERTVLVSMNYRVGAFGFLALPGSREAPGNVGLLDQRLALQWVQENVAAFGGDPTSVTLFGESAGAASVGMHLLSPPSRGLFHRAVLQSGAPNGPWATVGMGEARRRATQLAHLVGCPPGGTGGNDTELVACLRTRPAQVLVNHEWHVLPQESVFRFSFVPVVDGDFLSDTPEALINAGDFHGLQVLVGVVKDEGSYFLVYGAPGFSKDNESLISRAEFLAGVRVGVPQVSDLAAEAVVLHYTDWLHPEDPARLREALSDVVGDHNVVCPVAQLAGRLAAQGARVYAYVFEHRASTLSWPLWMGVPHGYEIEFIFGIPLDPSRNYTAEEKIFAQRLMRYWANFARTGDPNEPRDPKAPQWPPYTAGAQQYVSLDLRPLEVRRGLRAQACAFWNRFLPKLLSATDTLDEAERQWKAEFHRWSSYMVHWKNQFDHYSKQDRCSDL

[2] = read-out: IC50 BChE (IC50 ± SE)

T1 sequence (P06276 29-602): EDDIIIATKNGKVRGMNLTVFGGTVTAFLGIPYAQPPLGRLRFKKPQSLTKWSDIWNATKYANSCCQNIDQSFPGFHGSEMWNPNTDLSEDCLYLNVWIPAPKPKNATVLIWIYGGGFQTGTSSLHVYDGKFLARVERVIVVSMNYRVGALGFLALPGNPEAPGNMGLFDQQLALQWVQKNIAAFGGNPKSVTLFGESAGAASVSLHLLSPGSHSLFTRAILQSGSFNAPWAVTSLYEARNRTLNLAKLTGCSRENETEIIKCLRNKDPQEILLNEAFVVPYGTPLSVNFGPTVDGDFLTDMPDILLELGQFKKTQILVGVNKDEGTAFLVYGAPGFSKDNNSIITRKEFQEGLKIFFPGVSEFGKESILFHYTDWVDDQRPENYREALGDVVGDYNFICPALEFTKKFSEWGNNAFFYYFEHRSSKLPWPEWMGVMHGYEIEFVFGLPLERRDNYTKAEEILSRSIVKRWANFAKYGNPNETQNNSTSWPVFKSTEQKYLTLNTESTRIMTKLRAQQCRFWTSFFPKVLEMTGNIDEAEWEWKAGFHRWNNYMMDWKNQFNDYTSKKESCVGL

Row | Structure (SMILES) | IC50 [1, 2] | IC50 (recombinant human AChE) | fold lower BChE binding affinity than the most potent inhibitor trans-12 ([1]; ratio of IC50 vs trans-12) | times more potent inhibitor of BChE than trans-12, trans-10 and trans-8 ([1]; ratio of IC50 vs trans-12, trans-10, trans-8) | fold higher potency for BChE than counterpart trans-6 ([1]; ratio of IC50 vs trans-6) | IC50 ([1]; IC50 BChE (IC50 ± SE))
1 | Cc1ccc(CNc2ccc(/C=C/c3cnco3)cc2)cc1 [trans-3, (E)-N-(4-methylbenzyl)-4–(2-(oxazol-5-yl)vinyl)aniline] | 120 ± 19 µM | > 100 µM |  |  |  | 
2 | C(=C\c1cnco1)/c1ccc(NCc2ccco2)cc1 [trans-17, (E)-N-(furan-2-ylmethyl)-4–(2-(oxazol-5-yl)vinyl)aniline] | 65 ± 10 µM | > 100 µM |  |  |  | 
3 | Cc1ccccc1CNc1ccc(/C=C/c2cnco2)cc1 [trans-11, (E)-N-(2-methylbenzyl)-4–(2-(oxazol-5-yl)vinyl)aniline] | 160 ± 35 µM | > 100 µM | 5.5 fold |  |  | 
4 | C(=C/c1cnco1)/c1ccc(NCc2cccs2)cc1 [cis-18, (Z)-4–(2-(oxazol-5-yl)vinyl)-N-(thiophen-2-ylmethyl)aniline] | 5.7 ± 0.8 µM | 160 ± 100 µM |  | about 5 times |  | 
5 | COc1cccc(CNc2ccc(/C=C/c3cnco3)cc2)c1 [trans-8, (E)-N-(3-methoxybenzyl)-4–(2-(oksazol-5-yl)vinyl)aniline] | 36 ± 4.4 µM | > 100 µM |  |  |  | 
6 | c1ccc(CNc2ccc3ccc4ocnc4c3c2)cc1 [Compound 19, N-benzylnaphtho[1,2-d]oxazol-8-amine] | 140 ± 24 µM | 68 ± 25 µM |  |  |  | 
7 | Nc1ccc2ccc3ocnc3c2c1 [Compound 23, Naphtho[1,2-d]oxazol-8-amine] | 1000 ± 650 µM | 120 ± 46 µM |  |  |  | 
8 | COc1ccc(CNc2ccc(/C=C/c3cnco3)cc2)cc1 [trans-4, (E)-N-(4-methoxybenzyl)-4–(2-(oxazol-5-yl)vinyl)aniline] | 110 ± 15 µM | > 100 µM |  |  |  | 
9 | Fc1ccc(CNc2ccc(/C=C/c3cnco3)cc2)cc1 [trans-6, (E)-N-(4-fluorobenzyl)-4–(2-(oxazol-5-yl)vinyl)aniline] | 80 ± 10 µM | > 100 µM |  |  |  | 
10 | Fc1ccc(CNc2ccc3ccc4ocnc4c3c2)cc1 [Compound 20, N-(4-fluorobenzyl)naphtho[1,2-d]oxazol-8-amine] | 12 ± 1.3 µM | 45 ± 17 µM |  |  | about 8 fold | 
11 | Fc1cccc(CNc2ccc(/C=C/c3cnco3)cc2)c1 [trans-10, (E)-N-(3-fluorobenzyl)-4–(2-(oxazol-5-yl)vinyl)aniline] | 32 ± 5.2 µM | > 100 µM |  |  |  | 
12 | COc1ccccc1CNc1ccc(/C=C/c2cnco2)cc1 [trans-12, (E)-N-(2-methoxybenzyl)-4–(2-(oxazol-5-yl)vinyl)aniline] | 28 ± 5.2 µM | > 100 µM |  |  |  | 
13 | Cc1cccc(CNc2ccc(/C=C/c3cnco3)cc2)c1 [trans-7, (E)-N-(3-methylbenzyl)-4–(2-(oxazol-5-yl)vinyl)aniline] | 130 ± 26 µM | > 100 µM |  |  |  | 
14 | Nc1ccc(/C=C\c2cnco2)cc1 [cis-22, (Z)-4–(2-(oxazol-5-yl)vinyl)aniline] | 110 ± 58 µM | 190 ± 100 µM |  |  |  | 
15 | C(=C\c1cnco1)/c1ccc(NCc2ccccc2)cc1 [trans-2, (E)-N-benzyl-4–(2-(oxazol-5-yl)vinyl)aniline] | 120 ± 22 µM | > 100 µM |  |  |  | 
16 | Clc1ccc(CNc2ccc(/C=C/c3cnco3)cc2)cc1 [trans-5, (E)-N-(4-chlorobenzyl)-4–(2-(oxazol-5-yl)vinyl)aniline] | 87 ± 12 µM | > 100 µM |  |  |  | 
17 | CCN(CC)C(C)CN1c2ccccc2Sc2ccccc21 (centres unmarked) [Ethopropazine, reference compound] |  |  |  |  |  | 0.046 ± 0.0037 µM
18 | c1csc(CNc2ccc3ccc4ocnc4c3c2)c1 [Compound 21, N-(thiophen-2-ylmethyl)naphtho[1,2-d]oxazol-8-amine] | 35 ± 7.1 µM | 51 ± 20 µM |  |  |  | 

Reference: article PMC6968547, “Design, synthesis and cholinesterase inhibitory properties of new oxazole benzylamine derivatives” (Journal of Enzyme Inhibition and Medicinal Chemistry, 2020)
